Assay type in all cases: biochemical
One assay has as its target T1, papain (Carica papaya, UniProt P00784).
T1 sequence (P00784 134-345): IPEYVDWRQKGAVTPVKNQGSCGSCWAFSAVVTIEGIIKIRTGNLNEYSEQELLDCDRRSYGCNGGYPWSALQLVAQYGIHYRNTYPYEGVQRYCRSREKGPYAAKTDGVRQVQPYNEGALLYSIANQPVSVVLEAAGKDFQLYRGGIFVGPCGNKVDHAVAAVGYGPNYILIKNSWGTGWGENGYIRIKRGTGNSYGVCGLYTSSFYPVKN
In words: Thiol protease inhibitory activity against papain (P-3125, Sigma). As for the experimental part:
(§1) Inhibitory activity against papain (P-3125, Sigma) and cathepsin B (C-6286, Sigma) was assayed according to the method described in a literature [Biochemical Journal, 201, 189 (1982)]. Capthesin L was purified from rat kidney according to the method in a literature [Journal of Biochemistry, 100, 35 (1986)], and the inhibitory activity against it was assayed in the same manner as described in the above literature for cathepsin B. Further, m-calpain was purified from rat brain according to a known method [Journal of Biological Chemistry, 254, p.3210 (1984)] and the inhibitory activity against it was assayed by a method described in a literature [Journal of Biological Chemistry, 259, 12489 (1984)]. The results are showing in Tables 3 and 4. It is evident from Tables 3 and 4 that the compounds in the present invention have a potent inhibitory activity against thiol proteases such as papain, cathepsin B, cathepsin L, m-calpain or the like.

For a further assay, the target named is T2, m-calpain (Rattus norvegicus, UniProt Q07009).
T2 construct: m-calpain was purified from rat brain; from tissue; host or cells: rat brain
T2 sequence (Q07009 20-700 limits assumed): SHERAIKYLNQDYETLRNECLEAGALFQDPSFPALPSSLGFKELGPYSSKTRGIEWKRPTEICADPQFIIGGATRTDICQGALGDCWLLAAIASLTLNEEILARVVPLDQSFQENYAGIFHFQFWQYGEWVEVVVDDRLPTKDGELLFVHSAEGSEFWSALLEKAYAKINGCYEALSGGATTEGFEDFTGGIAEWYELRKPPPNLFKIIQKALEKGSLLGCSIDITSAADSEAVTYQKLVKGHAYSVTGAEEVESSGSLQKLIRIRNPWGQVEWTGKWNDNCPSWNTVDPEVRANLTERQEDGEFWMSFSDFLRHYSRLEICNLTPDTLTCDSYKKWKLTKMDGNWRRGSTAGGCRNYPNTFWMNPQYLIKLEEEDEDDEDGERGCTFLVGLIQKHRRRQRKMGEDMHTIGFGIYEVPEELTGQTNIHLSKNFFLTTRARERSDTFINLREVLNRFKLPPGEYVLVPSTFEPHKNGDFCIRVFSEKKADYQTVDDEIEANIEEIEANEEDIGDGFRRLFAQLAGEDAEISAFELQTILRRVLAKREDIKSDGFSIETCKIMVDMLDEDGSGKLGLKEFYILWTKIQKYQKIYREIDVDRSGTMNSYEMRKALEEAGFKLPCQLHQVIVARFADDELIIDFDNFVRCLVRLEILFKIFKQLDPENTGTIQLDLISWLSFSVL
T2 sequence (Q64537 1-270 partner): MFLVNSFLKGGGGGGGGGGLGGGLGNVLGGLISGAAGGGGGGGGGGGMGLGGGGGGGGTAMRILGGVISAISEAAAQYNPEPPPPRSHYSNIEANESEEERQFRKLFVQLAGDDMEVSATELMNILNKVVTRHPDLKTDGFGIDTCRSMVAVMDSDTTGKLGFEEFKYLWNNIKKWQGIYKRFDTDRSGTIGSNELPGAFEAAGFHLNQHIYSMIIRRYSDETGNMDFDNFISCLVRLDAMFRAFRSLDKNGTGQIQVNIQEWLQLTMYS
In words: Thiol protease inhibitory activity against m-calpain purified from rat brain. As for the experimental part: as §1

In the next assay the target is T3, cathepsin L (Rattus norvegicus, UniProt P07154).
T3 construct: Capthesin L was purified from rat kidney; from tissue; host or cells: rat kidney
In words: Thiol protease inhibitory activity against cathepsin L purified from rat kidney. As for the experimental part: as §1

For a further assay, the target named is T4, cathepsin B (Bos taurus, UniProt P07688).
T4 construct: purchased Sigma C-6286
In words: Thiol protease inhibitory activity against cathepsin B (C-6286, Sigma). Here is the method:
as §1

Setting [1] is: Table 3, read-out: IC50 (μM) papain.
The mark [2] stands for this setting: Table 3, rat brain enzyme, read-out: IC50 (μM) m-calpain.
Where [3] appears, read: Table 3, rat kidney enzyme, read-out: IC50 (μM) cathepsin L.
[4] abbreviates: Table 3, read-out: IC50 (μM) cathepsin B.
Setting [5] is: Table 4, rat brain enzyme, read-out: Inhibitory activity against m-calpain IC50.

Structures can show the parent of a compound that is named as a salt. Where two headings read alike, the source gives them in different places.

T3 sequence (P07154 114-288 limits assumed): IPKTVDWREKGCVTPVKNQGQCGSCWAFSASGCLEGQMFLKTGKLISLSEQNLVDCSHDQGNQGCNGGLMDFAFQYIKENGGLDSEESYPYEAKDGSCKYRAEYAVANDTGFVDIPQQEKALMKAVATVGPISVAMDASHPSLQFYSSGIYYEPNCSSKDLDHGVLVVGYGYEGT
T3 sequence (P07154 291-334 limits assumed): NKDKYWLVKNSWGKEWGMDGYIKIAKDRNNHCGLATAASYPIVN

As a reminder, the IC50 is the concentration needed to halve the response being measured. Turning to `CC(C)C[C@H](NC(=O)OCc1ccccc1)C(=O)N[C@@H](C(C)C)[C@@H](O)c1c(-c2ccccc2)c1=O` [25 (No. 83), 2-[(1S, 2S)-2-((S)-2-benzyloxycarbonylamino-4-methylvalerylamino)-1-hydroxy-3-methylbutyl]-3-phenylcyclopropenone], the IC50 stood at 13 µM at papain (setting [1]), 2.1 µM on m-calpain (setting [2]), 5.7 µM at cathepsin L (setting [3]) and 32 µM at cathepsin B (setting [4]).
For `CCCC[C@H](NC(=O)[C@H](CC(C)C)NC(=O)OCc1ccccc1)C(O)c1c(-c2ccccc2)c1=O` (stereo partly drawn) [95 (No. 281), 2-[(2S)-2-((S)-2-benzyloxycarbonylamino-4-methylvalerylamino]-1-hydroxyhexyl]-3-phenylcyclopropenone], in that order: 13 µM, 3 µM, 1.27 µM and 11 µM.
The matching figures for `CCCC[C@H](NC(=O)[C@H](CC(C)C)NC(=O)OCC1CCCCC1)C(O)c1c(-c2ccccc2)c1=O` (stereo partly drawn) [94 (No. 280), 2-[(2S)-2-((S)-2-cyclohexylmethoxycarbonylamino-4-methylvalerylamino)-1-hydroxyhexyl]-3-phenylcyclopropenone]: 0.074 µM, 2.7 µM, 0.062 µM and 1 µM.
Consider `CCCC[C@H](NC(=O)[C@H](CC(C)C)NC(=O)OCC1CCCCC1)C(O)c1cc1=O` (stereo partly drawn) [6 (No. 15), 2-[(2S)-2-((S)-2-cyclohexylmethoxycarbonylamino-4-methylvalerylamino)-1-hydroxyhexyl]cyclopropenone], for which the IC50 on papain (setting [1]) was found to be 0.076 µM; on m-calpain (setting [2]) it was 0.81 µM; at cathepsin L (setting [3]) it was 0.54 µM; on cathepsin B (setting [4]), 0.16 µM.
With `CCCC[C@H](NC(=O)[C@H](CC(C)C)NC(=O)OCC1CCCCC1)C(O)c1c(-c2ccc([Si](C)(C)C)s2)c1=O` (stereo partly drawn) [115 (No. 387), 2-[(2S)-2-((S)-2-cyclohexylmethoxycarbonylamino-4-methylvalerylamino)-1-hydroxy-1-hexyl]-3-(5-trimethylsilyl-2-thienyl)cyclopropenone], the IC50 at papain (setting [1]) came out at 0.48 µM; against m-calpain, 11 µM; on cathepsin L, 0.27 µM; against cathepsin B, 1.5 µM.
For the molecule `CCCC[C@H](NC(=O)[C@H](CC(C)C)NC(=O)OCc1ccccn1)C(O)c1c(-c2ccccc2)c1=O` (stereo partly shown) [96 (No. 282)], the IC50 at papain worked out at 7 µM; on m-calpain (setting [2]), 5.7 µM; at cathepsin L (setting [3]) it was 4.6 µM; on cathepsin B (setting [4]), 28 µM.
For `CC(C)C[C@H](NC(=O)OCC1CCCCC1)C(=O)N[C@@H](C(C)C)C(O)c1cc1=O` (stereo partly drawn) [4 (No. 4), 2-[(2S)-2-((S)-2-cyclohexylmethoxycarbonylamino-4-methylvalerylamino)-1-hydroxy-3-methylbutyl]cyclopropenone], the values for the IC50 at papain (setting [1]), at m-calpain (setting [2]) and on cathepsin B (setting [4]) were 5.8 µM, 0.5 µM and 0.41 µM, respectively.
With `CC(C)C[C@H](NC(=O)C1CCCCC1)C(=O)N[C@@H](C(C)C)[C@@H](O)c1c(-c2ccccc2)c1=O` [40 (No. 129), 2-[(1S, 2S)-2-((S)-2-cyclohexylcarbonylamino-4-methylvalerylamino)-1-hydroxy-3-methylbutyl]-3-phenylcyclopropenone], the IC50 on m-calpain (setting [5]) came to 2.6 µM.
Same read-out and setting: with `COC(=O)c1ccc(C(=O)N[C@@H](CC(C)C)C(=O)N[C@@H](C(C)C)[C@@H](O)c2c(-c3ccccc3)c2=O)cc1` [65 (No. 191), 2-[(1S, 2S)-1-hydroxy-2-{(S)-2-(4-methoxycarbonylbenzoylamino)-4-methylvalerylamino}-3-methylbutyl]-3-phenylcyclopropenone] the figure was 1.8 µM; with `CC(C)C[C@H](NC(=O)c1ccc(Cl)cc1)C(=O)N[C@@H](C(C)C)[C@@H](O)c1c(-c2ccccc2)c1=O` [62 (No. 180), 2-[(1S, 2S)-2-{(S)-2-(4-chlorobenzoylamino)-4-methylvalerylamino}-1-hydroxy-3-methylbutyl]-3-phenylcyclopropenone], 1.4 µM; with `CC(C)C[C@H](NC(=O)CCCc1ccccc1)C(=O)N[C@@H](C(C)C)[C@@H](O)c1c(-c2ccccc2)c1=O` [43 (No. 134), 2-[(1S, 2S)-1-hydroxy-3-methyl-2-{(S)-4-methyl-2-(4-phenylbutyrylamino)valerylamino}butyl]-3-phenylcyclopropenone], 1.7 µM.
As to `COc1ccc(S(=O)(=O)N[C@@H](CC(C)C)C(=O)N[C@@H](C(C)C)[C@@H](O)c2c(-c3ccccc3)c2=O)cc1` [87 (No. 257), 2-[(1S, 2S)-1-hydroxy-2-{(S)-2-(4-methoxyphenylsulfonylamino)-4-methylvalerylamino}-3-methylbutyl]-3-phenylcyclopropenone], the IC50 at m-calpain (setting [5]) worked out at 1 µM.
The same measure, in the same setting: with `CC(C)C[C@H](NC(=O)NCc1ccccc1)C(=O)N[C@@H](C(C)C)[C@@H](O)c1c(-c2ccccc2)c1=O` [75 (No. 225), 2-[(1S, 2S)-2-{(S)-2-(3-benzylureido)-4-methylvalerylamino}-1-hydroxy-3-methylbutyl]-3-phenylcyclopropenone] the figure was 3.3 µM.
As for `CC(C)C[C@H](NC(=O)CCC(=O)c1ccccc1)C(=O)N[C@@H](C(C)C)[C@@H](O)c1c(-c2ccccc2)c1=O` [45 (No. 140), 2-[(1S, 2S)-2-{(S)-2-(3-benzoylpropionylamino)-4-methylvalerylamino}-1-hydroxy-3-methylbutyl]-3-phenylcyclopropenone], on m-calpain (setting [5]), the IC50 worked out at 1 µM.
In the case of `CC(C)C[C@H](NC(=O)c1ccco1)C(=O)N[C@@H](C(C)C)[C@@H](O)c1c(-c2ccccc2)c1=O` [67 (No. 197), 2-[(1S, 2S)-2-{(S)-2-(2-furoylamino)-4-methylvalerylamino}-1-hydroxy-3-methylbutyl]-3-phenylcyclopropenone], the IC50 on m-calpain (setting [5]) turned out to be 0.88 µM.
Still for that read-out and setting: with `CC(C)C[C@H](NC(=O)OCc1ccncc1)C(=O)N[C@@H](C(C)C)[C@@H](O)c1c(-c2ccccc2)c1=O` [31 (No. 99), 2-[(1S, 2S)-1-hydroxy-3-methyl-2-{(S)-4-methyl-2-(4-pyridylmethoxycarbonylamino)valerylamino}butyl]-3-phenylcyclopropenone hydrochloride] the figure was 1.3 µM; with `CC(C)C[C@H](NC(=O)Nc1ccccc1)C(=O)N[C@@H](C(C)C)[C@@H](O)c1c(-c2ccccc2)c1=O` [76 (No. 227)], 4.6 µM.
Still for that read-out and setting: the same measure for `CC(C)C[C@H](NS(=O)(=O)c1cccc2ccccc12)C(=O)N[C@@H](C(C)C)[C@@H](O)c1c(-c2ccccc2)c1=O` [88 (No. 259), 2-[(1S, 2S)-1-hydroxy-3-methyl-2-{(S)-4-methyl-2-(1-naphtylsulfonylamino)valerylamino}butyl]-3-phenylcyclopropenone]: 0.65 µM.
Regarding `CC(=O)CCC(=O)N[C@@H](CC(C)C)C(=O)N[C@@H](C(C)C)[C@@H](O)c1c(-c2ccccc2)c1=O` [44 (No. 137), 2-[(1S, 2S)-1-hydroxy-3-methyl-2-(S)-4-methyl-2-(4-oxovalerylamino)valerylamino]-3-phenylcyclopropenone], the IC50 on m-calpain (setting [5]) came to 3 µM.
With `COc1ccccc1OCC(=O)N[C@@H](CC(C)C)C(=O)N[C@@H](C(C)C)[C@@H](O)c1c(-c2ccccc2)c1=O` [53 (No. 161)], the IC50 on m-calpain (setting [5]) was 2.3 µM.
